Experimental data published in patent publication US6610675B1 (priority 1980, dated 2003).

What was measured:
[1] = test system: thymus weight in rats; experiment: Thymus involution test (topically administered steroids, thymus weight in rats)
Method: The test animals were female Sprague/Dawley rats weighing approximately 40-45 grams each. One side of each ear of each rat was treated with a total of 25 microliters of a solution (ethanol/isopropyl myristate or acetone/isopropyl myristate, 90/10) containing the amount of test compound indicated below. Animals which were treated identically, save for omission of the test compound, served as controls. After 24 hours, all rats were sacrificed and weighed, and their thymi were removed and weighed.
The lower the weight of the thymi, the greater the systemic activity.

[2] = test system: blanching in humans; experiment: McKenzie-type human blanching studies; format: in vivo; conditions: forearm, 6 hours occlusion
Method: McKenzie-type human blanching studies were undertaken to study the blanching effects of a representative test compound of the invention, chloromethyl 17α-ethoxycarbonyloxy-11β-hydroxyandrost-4-en-3-one-17β-carboxylate.
The test compound was dissolved in ethanol/isopropyl myristate (90/10 or 70/30) at 0.03, 0.01, 0.003, 0.001 and 0.0003 M concentrations. 50 Microliter aliquots of each solution were applied to separate gauze portions of a bandage of the type commonly used for allergy testing and the bandage was applied to the forearm. After 6 hours of occlusion, the bandage was removed.

[3] = 0.75 μmol topical on ear, after 24 hours

SMILES: C[C@]12CCC(=O)C=C1CC[C@@H]1[C@@H]2[C@@H](O)C[C@@]2(C)[C@H]1CC[C@]2(O)C(=O)CO [Hydrocortisone]
- decrease in thymus weight compared to the control (in words) ([1]; 0.75 μmol topical): causes a significant decrease in thymus weight compared to the control
- Total Weight per Rat, % Gain ± SD [1, 3]: 24 ± 7%
- Total Weight per Rat, Final [1, 3]: 61.15 g
- mg Thymus ± SD / 100 g Rat [1, 3]: 274 ± 45 mg/100 g
- blanching ([2]; 0.03 to 0.0003 M, 50 microliter, read 1 to 5 hours after removal): blanching was not observed at concentrations of hydrocortisone below 0.03 M
- concentration causing approximately the same degree of blanching ([2]; direct comparison): ~0.03 M
